# Measured values published in patent US20130302305A1, “Methods for Treating Gout in Patients Subpopulations” (Metabolex, Inc., priority 2011, published 2013).
# “And” between values parts separate entries of the source, which are not always exact repeats. Equal values may be shown once.
# Experiments:
# [1] = test system: gout patients; conditions: monotherapy at 40, 80, 120, 160 and 240 mg/day; cited from earlier work
# [2] = test system: type 2 diabetic patients; experiment: Pooled analysis of four phase 2 studies: change in serum uric acid (sUA) from baseline; type: in vivo, human; conditions: for reduction in serum uric acid from baseline: all analysed patients, 12-24 weeks (pooled)
# Protocol: (§1) FIGS. 1-4 were generated based on the pooled analysis of four phase 2 studies conducted with (−)-halofenate in type 2 diabetic patients. In these studies a total of 955 patients were enrolled. In the M102-20303 study, two dose levels of (−)-halofenate (200 mg and 400 mg) or placebo were given orally daily to a total of 217 patients for 12 weeks. In the M102-20405 study, (−)-halofenate at a dose of 600 mg or placebo was given daily to a total of 100 patients for 12 weeks. In the M102-20509 study, three dose levels of (−)-halofenate (200 mg, 400 mg and 600 mg), Actos® 30 mg or placebo were given orally daily to a total of 396 patients for 16 weeks. In M102-20814 study, two dose levels of (−)-halofenate (400 mg and 600 mg), Actos® 30-45 mg or placebo were given orally daily to a total of 242 patients for 24 weeks. In these studies, change in serum uric acid (sUA) from baseline was one of the important endpoints. In order to maintain the blinded status, the sUA results following administration of double-blind study medication were not available to any parties until the studies were unblinded. Patients who added or changed the existing doses of medications that are known to influence serum uric acid levels were excluded from the serum uric acid analysis. Patients received either (−)-halofenate or matching placebo during the study were included in this exploratory analysis. Patients who received (−)-halofenate during the study but had no measurable (−)-halofenate in the blood were defined as non-compliant and were excluded from the analysis. This analysis indicated statistically significant dose dependent reduction in serum uric acid from baseline: 2% in the placebo group (n=252), −11% in the 200 mg group (n=125), −20% in the 400 mg group (n=174), and −27% in the 600 mg group (n=159); p<0.0001 for all dose groups. In order to evaluate the sUA response in CKD patients, in addition to the analysis described above, the patients were subdivided based on their baseline kidney function status. The kidney function status of each patient was evaluated by estimating the creatinine clearance (glomerular filtration rate) using the Cockcroft-Gault equation [Cockcroft-Gault GFR=(140−age)×(Body weight in kg)×(0.85 if female)/(72×serum creatinine)]. For estimating the baseline creatinine clearance, baseline body weight (kg) and baseline serum creatinine values were used and similarly, for estimating the end-of-the study creatinine clearance, end-of-study body weight and end-of-study serum creatinine values were used. […] In this analysis there were no patients with CKD4 (severe CKD) or CKD5 (kidney failure).
# [3] = test system: type 2 diabetes patients inadequately controlled on existing insulin therapy; experiment: Phase 2 study M102-20303: triglycerides; type: in vivo, human; conditions: CKD2 and CKD3 (mild to moderate CKD) patients, 400 mg daily for 12 weeks
# Protocol: (§2) FIGS. 5-7 were generated based on a randomized, double-blind, placebo-controlled phase 2 study, M102-20303. In this study, two dose levels of (−)-halofenate (200 mg and 400 mg) or placebo were given orally daily for 12 weeks to a total of 217 type 2 diabetes patients who were inadequately controlled on existing insulin therapy. In addition to their stable dose of insulin, these patients received the study drug for 12 weeks, and followed up for an additional four weeks. In this study, change in HbA1c from baseline at week 16 was the primary endpoint and changes in fasting plasma glucose and triglyceride from baseline at Week 12 were secondary endpoints. In order to maintain the blinded status, the HbA1c results following administration of double-blind study medication were not available to any parties until the studies were unblinded. In this study, patients were not allowed to add any other glucose lowering agent(s) or to change their existing doses of insulin. Patients who added lipid lowering agent(s) or changed their existing doses of lipid lowering agent(s) were excluded from the triglyceride analysis. Patients who received (−)-halofenate during the study but had no measurable (−)-halofenate in the blood were defined as non-compliant and were excluded from the analysis.
# [4] = test system: type 2 diabetes patients inadequately controlled on existing insulin therapy; experiment: Phase 2 study M102-20303: fasting plasma glucose (FPG); type: in vivo, human; conditions: for mean observed change in FPG from baseline at Week 12: all patients
# Protocol: as §2
# [5] = test system: type 2 diabetic patients; experiment: Pooled analysis of four phase 2 studies: estimated creatinine clearance (Cockcroft-Gault), kidney function status; type: in vivo, human; conditions: for Mean Baseline estimated Cr Cl (mL/min) (second column of that head, c3): all analysed patients
# Protocol: as §1
# The changes in estimated creatinine clearance values in the 200 mg, 400 mg, and 600 mg groups compared to placebo group were not statistically significant.
# [6] = test system: type 2 diabetes patients inadequately controlled on existing insulin therapy; experiment: Phase 2 study M102-20303: HbA1c; type: in vivo, human; conditions: for reduction from baseline in HbA1c: all patients, endpoint at week 16
# Protocol: as §2
# [7] = CKD2 and CKD3 (mild to moderate CKD) patients, 400 mg daily for 12 weeks
compound,measurement,setting,value
"O=c1[nH]cnc2c(CN3C[C@H](CO)[C@@H](O)C3)c[nH]c12 [Ulodesine, 7-(((3R,4R)-3-hydroxy-4-(hydroxymethyl)pyrrolidin-1-yl)methyl)-3H-pyrrolo[3,2-d]pyrimidin-4(5H)-one]",effect on serum uric acid,[1],rapidly and significantly reduced serum uric acid
"CC(=O)NCCOC(=O)[C@H](Oc1cccc(C(F)(F)F)c1)c1ccc(Cl)cc1 [(−)-halofenate, (−)-(R)-(4-chloro-phenyl)-(3-trifluoromethyl-phenoxy)-acetic acid 2-acetylamino-ethyl ester]",Mean Change in sUA (%),"[2]; 200 mg daily, CKD2 and CKD3 patients",−14% and −14.30%
same,Mean Change in sUA (%),"[2]; 400 mg daily, CKD2 and CKD3 patients",−21% and −21.30%
same,Mean Change in sUA (%),"[2]; 600 mg daily, CKD2 (mild CKD) patients",−28% and −28.2%
same,Mean Change in sUA (%),"[2]; 600 mg daily, CKD2 and CKD3 patients",−29%
same,Mean Change in sUA (%),"[2]; 600 mg daily, CKD3 (moderate CKD) patients",−36% and −35.6%
same,Mean Change in sUA (%),"[2]; 600 mg daily, Normal and CKD1 patients",−25% and −25.3%
same,urate-lowering effect when co-administered with aspirin,"[2]; 200, 400 and 600 mg daily with low to medium doses of aspirin (<= about 325 mg/day) vs no aspirin",does not result in clinically significant loss of the urate-lowering effect
same,urate-lowering effect when co-administered with diuretics,"[2]; 200, 400 and 600 mg daily with thiazide or other diuretics vs no diuretics",does not result in clinically significant loss of the urate-lowering effect
same,reduction in serum uric acid from baseline,[2]; 200 mg orally daily,−11%
same,reduction in serum uric acid from baseline,[2]; 400 mg orally daily,−20%
same,reduction in serum uric acid from baseline,[2]; 600 mg orally daily,−27%
same,change in serum uric acid (sUA) from baseline,"[2]; aspirin treated patients (<= about 325 mg/day), 200 mg daily",−13%
same,change in serum uric acid (sUA) from baseline,"[2]; aspirin treated patients (<= about 325 mg/day), 400 mg daily",−20%
same,change in serum uric acid (sUA) from baseline,"[2]; aspirin treated patients (<= about 325 mg/day), 600 mg daily",−27%
same,change in serum uric acid (sUA) from baseline,"[2]; patients not taking any diuretics, 200 mg daily",−11%
same,change in serum uric acid (sUA) from baseline,"[2]; patients not taking any diuretics, 400 mg daily",−21%
same,change in serum uric acid (sUA) from baseline,"[2]; patients not taking any diuretics, 600 mg daily",−27%
same,change in serum uric acid (sUA) from baseline,"[2]; patients not taking aspirin, 200 mg daily",−10%
same,change in serum uric acid (sUA) from baseline,"[2]; patients not taking aspirin, 400 mg daily",−20%
same,change in serum uric acid (sUA) from baseline,"[2]; patients not taking aspirin, 600 mg daily",−26%
same,change in serum uric acid (sUA) from baseline,"[2]; patients taking any diuretics, 200 mg daily",−12%
same,change in serum uric acid (sUA) from baseline,"[2]; patients taking any diuretics, 400 mg daily",−15%
same,change in serum uric acid (sUA) from baseline,"[2]; patients taking any diuretics, 600 mg daily",−24%
same,change in serum uric acid (sUA) from baseline,"[2]; thiazide diuretic treated patients, 200 mg daily",−16%
same,change in serum uric acid (sUA) from baseline,"[2]; thiazide diuretic treated patients, 400 mg daily",−17%
same,change in serum uric acid (sUA) from baseline,"[2]; thiazide diuretic treated patients, 600 mg daily",−24%
same,Change in triglyceride,[3],-33.6 mg/dL
same,End-of-study triglyceride,[3],168.6 mg/dL
same,Change in FPG (%),[4]; [7],−18.0% and −17.6%
same,End-of-study FPG,[4]; [7],136.5 mg/dL
same,mean observed change in FPG from baseline at Week 12,[4]; 200 mg daily,-10.9 mg/dL
same,mean observed change in FPG from baseline at Week 12,[4]; 400 mg daily,-29.2 mg/dL
same,"Mean Baseline estimated Cr Cl (mL/min) (second column of that head, c3)",[5]; 200 mg daily,102.4 mL/min
same,change in CrCL as compared to placebo,"[5]; 200 mg, 400 mg and 600 mg per day (FIG. 4)",no clinically significant change in CrCL
same,"Mean Baseline estimated Cr Cl (mL/min) (second column of that head, c3)",[5]; 400 mg daily,103.5 mL/min
same,"Mean Baseline estimated Cr Cl (mL/min) (second column of that head, c3)",[5]; 600 mg daily,100.6 mL/min
same,Change in HbA1c (%),[6]; [7],−1.1%
same,End-of-study HbA1c (%),[6]; [7],8.1%
same,reduction from baseline in HbA1c,[6]; 200 mg daily for 12 weeks on stable insulin,−0.9%
same,reduction from baseline in HbA1c,[6]; 400 mg daily for 12 weeks on stable insulin,−1.0%
